Source: the supplement of paper PMC10331698
± gives the standard deviation of the averaged measurements.

How the values were obtained:
Experiment in all cases: level (log10 ratio to DMSO vehicle control); higher = higher biomarker level / cell amount than vehicle control
[1] = compound: O=S(=O)(Cl)C(F)(F)C(F)(F)C(F)(F)C(F)(F)C(F)(F)C(F)(F)C(F)(F)C(F)(F)F [Perfluoro-1-octanesulfonyl chloride]; details: in DMSO
Protocol: (§1)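 BioMAP Diversity Plus panel of 12 human primary cell co-culture systems (3C, 4H, LPS, SAg, BT, BF4T, BE3C, CASM3C, HDF3CGF, KF3CT, MyoF, Mphg). Compounds were added 1 h before stimulation and left for 24 h (MyoF 48 h; BT 72 h for soluble read-outs or 6 d for IgG). Biomarkers were read by ELISA, cytotoxicity by SRB, PBMC viability and proliferation by Alamar Blue. Each well value was divided by the mean of 8 DMSO control wells on the same plate and log10 transformed; duplicate blinded samples were tested at 4 concentrations.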

[2] = compound: FC(F)(F)C(F)(F)C(F)(F)CC1CO1 [1H,1H-Heptafluorobutyl epoxide]; details: in DMSO
Protocol: as §1

Heptafluorobutyl iodide = compound: FC(F)(F)C(F)(F)C(F)(F)CI [Heptafluorobutyl iodide]; details: in DMSO
Protocol: as §1

Nonafluoropentanamide = compound: NC(=O)C(F)(F)C(F)(F)C(F)(F)C(F)(F)F [Nonafluoropentanamide]; details: in DMSO
Protocol: as §1

[3] = compound: C=CC(=O)OCC(F)(F)C(F)(F)C(F)(F)COC(=O)C=C [1H,1H,5H,5H-Perfluoro-1,5-pentanediol diacrylate]; details: 6700 nM; in DMSO
Protocol: as §1

[4] = compound: FC(F)(F)C(F)(F)C(F)(F)C(F)(F)C(F)(F)C(F)(F)CC1CO1 [3-(Perfluorohexyl)-1,2-epoxypropane]; details: in DMSO
Protocol: as §1

[5] = compound: C=C(C)C(=O)OCCC(F)(F)C(F)(F)C(F)(F)C(F)(F)C(F)(F)C(F)(F)F [6:2 Fluorotelomer methacrylate]; details: in DMSO
Protocol: as §1

Row | Test System | level (log10) ([1]; 6700 nM) | level (log10) ([1]; 20000 nM) | level (log10) ([1]; 60000 nM) | level (log10) ([2]; 6700 nM) | level (log10) ([2]; 20000 nM) | level (log10) ([2]; 60000 nM) | level (log10) (Heptafluorobutyl iodide; 6700 nM) | level (log10) (Heptafluorobutyl iodide; 20000 nM) | level (log10) (Heptafluorobutyl iodide; 60000 nM) | level (log10) (Nonafluoropentanamide; 6700 nM) | level (log10) (Nonafluoropentanamide; 20000 nM) | level (log10) (Nonafluoropentanamide; 60000 nM) | level (log10) [3] | level (log10) ([4]; 6700 nM) | level (log10) ([4]; 20000 nM) | level (log10) ([4]; 60000 nM) | level (log10) ([5]; 6700 nM) | level (log10) ([5]; 20000 nM) | level (log10) ([5]; 60000 nM)
1 | SAg:SRB | -0.001 ± 0.0042 | -0.0045 ± 0.011 | -0.107 ± 0.033 | 0.0065 ± 0.026 | -0.0065 ± 0.0092 | -0.0115 ± 0.011 | -0.007 ± 0.0099 | -0.001 ± 0.0042 | 0.002 ± 0.011 | -0.0025 ± 0.00071 | -0.0055 ± 0.00071 | -0.0045 ± 0.0078 | -0.0015 ± 0.012 | -0.007 ± 0.0099 | -0.012 ± 0.0042 | 0.006 ± 0.016 | 0 ± 0.0057 | -0.003 ± 0.0042 | -0.005 ± 0.0071
2 | BF4T:IL-1alpha | -0.0015 ± 0.0092 | -0.0045 ± 0.005 | -0.0925 ± 0.005 | 0.0165 ± 0.015 | 0.0095 ± 0.016 | 0.0355 ± 0.053 | -0.017 ± 0.016 | -0.0125 ± 0.0035 | -0.015 ± 0.05 | -0.017 ± 0.0042 | -0.0035 ± 0.028 | -0.003 ± 0.0014 | 0.0055 ± 0.036 | 0.003 ± 0.0071 | -0.0135 ± 0.005 | 0.013 ± 0.028 | -0.025 ± 0.041 | -0.0245 ± 0.025 | -0.0125 ± 0.018
3 | BE3C:EGFR | -0.0135 ± 0.019 | -0.0285 ± 0.00071 | -0.121 ± 0.014 | -0.0025 ± 0.0064 | -0.0045 ± 0.0064 | -0.018 ± 0.0042 | -0.015 ± 0.017 | -0.019 ± 0.0071 | 0.0015 ± 0.005 | 0.0025 ± 0.011 | -0.0425 ± 0.029 | -0.0175 ± 0.011 | -0.01 | -0.001 ± 0.0085 | -0.0015 ± 0.0035 | 0.007 ± 0.013 | 0.0045 ± 0.052 | 0.0085 ± 0.043 | 0.0135 ± 0.049
4 | SAg:CCL2/MCP-1 | -0.028 ± 0.017 | 0.0005 ± 0.025 | 0.041 ± 0.0028 | 0.0055 ± 0.0035 | -0.009 ± 0.0071 | -0.025 ± 0.017 | -0.0095 ± 0.0078 | -0.0025 ± 0.00071 | 0.01 ± 0.011 | -0.0125 ± 0.0035 | -0.0175 ± 0.012 | 0.0195 ± 0.053 | -0.13 ± 0.04 | -0.0075 ± 0.012 | 0.0005 ± 0.0021 | 0.003 ± 0.016 | -0.001 ± 0.058 | 0 ± 0.025 | 0.0135 ± 0.005
